According to patent publication US9115137B2, “2,3,4,5-tetrahydro-1H-pyrido[4,3-B]indole compounds and methods of use thereof” (priority 2008, dated 2015):

Key:
[1] = molecular target: T1, human recombinant histamine H1 receptor (Homo sapiens, UniProt P35367); test: Histamine H1 radioligand binding ([3H]Pyrilamine); settings: compound at 1 μM; CHO cells; read-out: Histamine Binding (1 μM) H1, percent inhibition of specific binding
T1 construct: expressed in transfected cells; host or cells: CHO cells
T1 sequence (P35367 whole entry): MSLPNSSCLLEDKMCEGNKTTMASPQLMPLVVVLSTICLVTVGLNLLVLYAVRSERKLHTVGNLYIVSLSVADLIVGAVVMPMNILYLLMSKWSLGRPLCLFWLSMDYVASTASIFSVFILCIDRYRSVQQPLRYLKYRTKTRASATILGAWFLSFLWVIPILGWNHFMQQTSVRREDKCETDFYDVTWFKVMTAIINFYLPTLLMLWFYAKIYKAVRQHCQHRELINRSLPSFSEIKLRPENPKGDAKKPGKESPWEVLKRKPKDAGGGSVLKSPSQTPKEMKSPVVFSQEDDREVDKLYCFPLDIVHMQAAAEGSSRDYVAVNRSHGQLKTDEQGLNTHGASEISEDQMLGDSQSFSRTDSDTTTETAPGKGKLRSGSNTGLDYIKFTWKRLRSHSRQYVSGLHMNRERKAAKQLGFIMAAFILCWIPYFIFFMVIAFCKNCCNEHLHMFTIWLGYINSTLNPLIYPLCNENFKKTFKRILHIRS
Method: To evaluate in radioligand binding assays the activity of compounds of the invention, human recombinant histamine H1 receptor expressed in Chinese hamster ovary (CHO) cells (De Backer, M. D. et al., Biochem. Biophys. Res. Comm. 197(3):1601, 1993) in a modified Tris-HCl buffer (50 mM Tris-HCl, pH 7.4, 2 mM MgCl2, 100 mM NaCl, 250 mM Sucrose) was used. Compounds of the invention were incubated with 1.2 nM [^3H]Pyrilamine for 180 minutes at 25° C. Non-specific binding was estimated in the presence of 1 μM pyrilamine. Receptor proteins were filtered and washed, the filters were then counted to determine [^3H]Pyrilamine specifically bound. Compounds were screened at 1 μM, using 1% DMSO as vehicle. Biochemical assay results are presented as the percent inhibition of specific binding in Table 5.

[2] = molecular target: T2, human recombinant histamine H2 receptor (Homo sapiens, UniProt P25021); test: Histamine H2 radioligand binding ([125I]aminopotentidine); settings: compound at 1 μM; CHO K1 cells; read-out: Histamine Binding (1 μM) H2, percent inhibition of specific binding
T2 construct: expressed in transfected cells; host or cells: CHO-K1 cells
T2 sequence (P25021 whole entry): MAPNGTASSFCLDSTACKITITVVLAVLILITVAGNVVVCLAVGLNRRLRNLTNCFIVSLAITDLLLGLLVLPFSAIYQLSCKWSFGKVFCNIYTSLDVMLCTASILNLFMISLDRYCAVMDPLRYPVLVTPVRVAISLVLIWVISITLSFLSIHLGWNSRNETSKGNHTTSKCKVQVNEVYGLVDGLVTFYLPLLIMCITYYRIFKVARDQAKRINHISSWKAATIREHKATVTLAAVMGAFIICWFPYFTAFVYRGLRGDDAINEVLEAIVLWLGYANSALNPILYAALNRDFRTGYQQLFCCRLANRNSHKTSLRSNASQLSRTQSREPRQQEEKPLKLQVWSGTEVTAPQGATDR
Method: To evaluate in radioligand binding assays the activity of compounds of the invention, human recombinant histamine H2 receptor expressed in Chinese hamster ovary (CHO) K1 cells (Ruat, M., Proc. Natl. Acad. Sci. USA. 87(5):1658, 1990) in a 50 mM Phosphate buffer, pH 7.4 was used. Compounds of the invention were incubated with 0.1 nM [^125I]aminopotentidine for 120 minutes at 25° C. Non-specific binding was estimated in the presence of 3 μM Tiotidine. Receptor proteins were filtered and washed, the filters were then counted to determine [^125I]Aminopotentidine specifically bound. Compounds were screened at 1 μM, using 1% DMSO as vehicle. Biochemical assay results are presented as the percent inhibition of specific binding in Table 5.

[3] = molecular target: T3, human recombinant adrenergic α1D receptor (Homo sapiens, UniProt P25100); test: Adrenergic α1D radioligand binding ([3H]Prozosin); settings: compound at 1 μM; HEK-293 cells; read-out: Adrenergic (1 μM) α1D, percent inhibition of specific binding
T3 construct: expressed in transfected cells; host or cells: HEK-293 cells
T3 sequence (P25100 1-572): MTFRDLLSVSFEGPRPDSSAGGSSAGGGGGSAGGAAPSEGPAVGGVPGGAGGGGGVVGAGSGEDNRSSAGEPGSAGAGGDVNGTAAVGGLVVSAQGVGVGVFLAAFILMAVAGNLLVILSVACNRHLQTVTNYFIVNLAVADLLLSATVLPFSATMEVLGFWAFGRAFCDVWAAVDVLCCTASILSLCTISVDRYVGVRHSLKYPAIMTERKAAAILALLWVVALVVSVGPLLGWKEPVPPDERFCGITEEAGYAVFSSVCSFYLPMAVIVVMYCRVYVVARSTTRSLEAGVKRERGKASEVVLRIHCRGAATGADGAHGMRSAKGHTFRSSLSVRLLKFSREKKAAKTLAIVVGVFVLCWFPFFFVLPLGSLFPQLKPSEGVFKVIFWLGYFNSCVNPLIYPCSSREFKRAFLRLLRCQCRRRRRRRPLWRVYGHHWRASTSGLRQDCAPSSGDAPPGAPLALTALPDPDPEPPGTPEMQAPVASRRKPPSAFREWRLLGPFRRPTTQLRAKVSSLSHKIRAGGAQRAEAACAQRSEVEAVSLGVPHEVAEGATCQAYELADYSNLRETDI
Method: To evaluate in radioligand binding assays the activity of compounds of the invention, human recombinant adrenergic α1D receptor expressed in human embryonic kidney (HEK-293) cells (Kenny, B. A. et al. Br. J. Pharmacol. 115(6):981, 1995) in a 50 mM Tris-HCl buffer, pH 7.4, was used. Compounds of invention were incubated with 0.6 nM [^3H]Prozosin for 60 minutes at 25° C. Non-specific binding was estimated in the presence of 10 μM phentolamine. Receptor proteins were filtered and washed, the filters were then counted to determine [^3H]Prozosin specifically bound. Compounds were screened at 1 μM or lower, using 1% DMSO as vehicle. Biochemical assay results are presented as the percent inhibition of specific binding in Table 6.

[4] = molecular target: T4, human recombinant dopamine D2L receptor (Homo sapiens, UniProt P14416); test: Dopamine D2L radioligand binding ([3H]Spiperone); settings: compound at 1 μM; CHO cells; read-out: Dopamine (1 μM) D2L, percent inhibition of specific binding
T4 construct: expressed in transfected cells; host or cells: CHO cells
T4 sequence (P14416 whole entry): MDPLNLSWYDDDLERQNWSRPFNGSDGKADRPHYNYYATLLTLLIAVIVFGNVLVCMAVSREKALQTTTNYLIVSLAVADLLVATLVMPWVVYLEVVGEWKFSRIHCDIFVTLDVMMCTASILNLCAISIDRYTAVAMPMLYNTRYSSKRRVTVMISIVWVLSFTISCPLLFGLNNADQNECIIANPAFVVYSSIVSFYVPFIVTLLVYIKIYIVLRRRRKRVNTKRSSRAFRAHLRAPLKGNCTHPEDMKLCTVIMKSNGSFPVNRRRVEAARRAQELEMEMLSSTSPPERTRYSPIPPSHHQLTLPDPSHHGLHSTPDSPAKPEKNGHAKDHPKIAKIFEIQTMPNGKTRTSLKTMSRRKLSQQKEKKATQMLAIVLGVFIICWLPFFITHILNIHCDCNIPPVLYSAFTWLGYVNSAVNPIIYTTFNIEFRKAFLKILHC
Method: To evaluate in radioligand binding assays the activity of compounds of the invention, human recombinant dopamine D2L receptor expressed in Chinese hamster ovary (CHO) cells (Grandy, D. K. et al. Proc. Natl. Acad. Sci. USA. 86:9762, 1989; Hayes, G. et al., Mol. Endocrinol. 6:920, 1992) in a modified Tris-HCl buffer (50 mM Tris-HCl, pH 7.4, 1.4 mM Ascorbic Acid, 0.001% BSA, 150 mM NaCl) was used. Compounds of the invention were incubated with 0.16 nM [^3H]Spiperone for 120 minutes at 25° C. Non-specific binding was estimated in the presence of 10 μM Haloperidol. Receptor proteins were filtered and washed, the filters were then counted to determine [^3H]Spiperone specifically bound. Compounds were screened at 1 μM or lower, using 1% DMSO as vehicle. Biochemical assay results are presented as the percent inhibition of specific binding in Table 6.

[5] = molecular target: T5, human recombinant serotonin (5-Hydroxytryptamine) 5-HT6 receptor (Homo sapiens, UniProt P50406); test: Serotonin 5-HT6 radioligand binding ([3H]LSD); settings: compound at 1 μM; HeLa cells; read-out: Serotonin (1 μM) 5-HT6, percent inhibition of specific binding
T5 construct: expressed in transfected cells; host or cells: human HeLa cells
T5 sequence (P50406 whole entry): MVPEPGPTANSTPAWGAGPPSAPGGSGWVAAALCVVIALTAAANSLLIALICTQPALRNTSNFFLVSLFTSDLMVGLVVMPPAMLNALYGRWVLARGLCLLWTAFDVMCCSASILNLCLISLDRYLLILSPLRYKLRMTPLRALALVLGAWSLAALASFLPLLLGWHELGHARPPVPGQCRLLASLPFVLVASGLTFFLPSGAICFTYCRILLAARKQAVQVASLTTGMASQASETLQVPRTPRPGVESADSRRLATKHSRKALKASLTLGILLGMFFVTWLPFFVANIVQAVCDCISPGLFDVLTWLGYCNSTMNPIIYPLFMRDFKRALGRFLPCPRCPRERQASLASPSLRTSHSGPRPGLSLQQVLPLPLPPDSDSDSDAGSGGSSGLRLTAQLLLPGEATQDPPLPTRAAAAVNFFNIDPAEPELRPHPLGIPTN
Method: To evaluate in radioligand binding assays the activity of compounds of the invention, human recombinant serotonin (5-Hydroxytryptamine) 5-HT6 receptor expressed in human HeLa cells (Monsma, F. J. Jr. et al., Mol. Pharmacol. 43:320, 1993) in a modified Tris-HCl buffer (50 mM Tris-HCl, pH 7.4, 150 mM NaCl, 2 mM Ascorbic Acid, 0.001% BSA) was used. Compounds of the invention were incubated with 1.5 nM [3H]Lysergic acid diethylamide (LSD) for 120 minutes at 37° C. Non-specific binding was estimated in the presence of 5 μM Serotonin (5-HT). Receptor proteins were filtered and washed, the filters were then counted to determine [3H]LSD specifically bound. Compounds were screened at 1 μM or lower, using 1% DMSO as vehicle. Biochemical assay results are presented as the percent inhibition of specific binding in Table 7.

Compound	inhibition at 1 µM [1]	inhibition at 1 µM [2]	inhibition at 1 µM [3]	inhibition at 1 µM [4]	inhibition at 1 µM [5]
CN1CCc2c(c3cc(Cl)ccc3n2CCC(=O)OCC2CCCCC2)C1 [Compound 20, cyclohexylmethyl 3-(8-chloro-1,2,3,4-tetrahydro-2-methylpyrido[4,3-b]indol-5-yl)propanoate]	95%	93%	90%	19%	93%
CN1CCc2c(c3cc(Cl)ccc3n2CCC(=O)OC2CCCC2)C1 [Compound 21, cyclopentyl 3-(8-chloro-1,2,3,4-tetrahydro-2-methylpyrido[4,3-b]indol-5-yl)propanoate]	98%	82%	88%	35%	100%
CCNC(=O)Cn1c2c(c3cc(C)ccc31)CN(C)CC2 [Compound 22, N-ethyl-2-(1,2,3,4-tetrahydro-2,8-dimethylpyrido[4,3-b]indol-5-yl)acetamide]	85%	11%	23%	-2%	27%
Cc1ccc2c(c1)c1c(n2CC(=O)NC(C)C)CCN(C)C1 [Compound 23, 2-(1,2,3,4-tetrahydro-2,8-dimethylpyrido[4,3-b]indol-5-yl)-N-isopropylacetamide]	65%	1%	15%	5%	3%
Cc1ccc2c(c1)c1c(n2CC(=O)NC(C)(C)C)CCN(C)C1 [Compound 24, N-tert-butyl-2-(1,2,3,4-tetrahydro-2,8-dimethylpyrido[4,3-b]indol-5-yl)acetamide]	44%	5%	-4%	3%	6%
Cc1ccc2c(c1)c1c(n2CC(=O)NCc2ccccc2)CCN(C)C1 [Compound 25, N-benzyl-2-(1,2,3,4-tetrahydro-2,8-dimethylpyrido[4,3-b]indol-5-yl)acetamide]	72%	9%	22%	-3%	58%
Cc1ccc2c(c1)c1c(n2CC(=O)NCC2CCCCC2)CCN(C)C1 [Compound 26, N-(cyclohexylmethyl)-2-(1,2,3,4-tetrahydro-2,8-dimethylpyrido[4,3-b]indol-5-yl)acetamide]	66%	22%	32%	-4%	34%
CN1CCc2c(c3cc(Cl)ccc3n2CC(=O)NC2CCCC2)C1 [Compound 27, 2-(8-chloro-1,2,3,4-tetrahydro-2-methylpyrido[4,3-b]indol-5-yl)-N-cyclopentylacetamide]	63%	5%	18%	-2%	13%
Cc1ccc2c(c1)c1c(n2CCC(=O)NC(C)(C)C)CCN(C)C1 [Compound 28]	21%	18%	58%	-1%	47%
Cc1ccc2c(c1)c1c(n2CCC(=O)Nc2ccccc2)CCN(C)C1 [Compound 29]	84%	34%	74%	2%	43%
Cc1ccc2c(c1)c1c(n2CCC(=O)NCC2CCCCC2)CCN(C)C1 [Compound 30, N-(cyclohexylmethyl)-3-(1,2,3,4-tetrahydro-2,8-dimethylpyrido[4,3-b]indol-5-yl)propanamide]	18%	41%	73%	7%	18%
CN1CCc2c(c3cc(Cl)ccc3n2CCC(=O)NC2CCCC2)C1 [Compound 31, 3-(8-chloro-1,2,3,4-tetrahydro-2-methylpyrido[4,3-b]indol-5-yl)-N-cyclopentylpropanamide]	45%	20%	61%	9%	34%
CN1CCc2c(c3cc(Cl)ccc3n2CC(N)=O)C1 [Compound 45, 2-(8-chloro-1,2,3,4-tetrahydro-2-methylpyrido[4,3-b]indol-5-yl)acetamide]	82%	3%	12%	7%	5%
Cc1ccc2c(c1)c1c(n2CCC(N)=O)CCN(C)C1 [Compound 46, 3-(1,2,3,4-tetrahydro-2,8-dimethylpyrido[4,3-b]indol-5-yl)propanamide]	52%	-5%	7%	4%	11%
Cc1ccc2c(c1)c1c(n2CCC(=O)Nc2ccc(F)cc2)CCN(C)C1 [Compound 47, N-(4-fluorophenyl)-3-(1,2,3,4-tetrahydro-2,8-dimethylpyrido[4,3-b]indol-5-yl)propanamide]	90%	53%	80%	-3%	63%
CN1CCc2c(c3cc(Cl)ccc3n2CC(=O)N(C)C)C1 [Compound 48, 2-(8-chloro-1,2,3,4-tetrahydro-2-methylpyrido[4,3-b]indol-5-yl)-N,N-dimethylacetamide]	73%	4%	10%	-6%	12%
